Laboratory results as given in patent US20240398781A1, “SPIROCYCLIC CYCLIC MODULATORS OF CHOLESTEROL BIOSYNTHESIS AND THEIR USE FOR PROMOTING REMYELINATION” (GENENTECH, INC., priority 2021, published 2024).

What was measured:
[1] = target: human emopamil binding protein and human 7-dehydrocholesterol reductase co-expressing cells (hEBP-DHCR7 membrane) (Homo sapiens (Human), UniProt Q15125); test: Radioligand filter binding assay on hEBP-DHCR7 membrane; conditions: [3H]-(S)-6-(2-Methyl-3-(6-(trifluoromethyl)pyridin-3-yl)propyl)-2-thia-6-azaspiro[3.4]octane 2,2-dioxide radioligand, HEK293 membrane co-expressing hEBP and hDHCR7
Procedure, shortened: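 HEK293 cells transiently co-expressing human EBP and DHCR7 supplied whole-cell membranes (10 μg/well), incubated 3 h at 22 °C with [3H]-labelled spiro-octane dioxide ligand (added at 25 nM) and compound (0.06-5000 nM final, 8 doses, n=2). Bound ligand was collected on PEI-treated GF/B filters and counted by scintillation. IC50 was Hill-fitted from % inhibition and reported as Ki.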

[2] = system: EBP (zymostenol accumulation in EpiSC-derived OPCs); test: GC/MS-based sterol profiling, zymostenol accumulation in OPCs; format: cell-based, mouse; conditions: Mus musculus, 24 h, EpiSC-derived OPCs, 24 hr treatment, 8 doses from 0.15 nM to 333 nM; read-out: Zymostenol GCMS EC50
Procedure, shortened: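 EpiSC-derived OPCs (100,000/well) were treated 24 h in N2B27 without growth factors. Sterols were TMS-derivatized and analysed by GC/MS full-scan EI, quantified against cholesterol-d7. Zymostenol was normalized to the level after 24 h with 100 nM positive control reference.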

human emopamil binding protein and human 7-dehydrocholesterol reductase co-expressing cells (hEBP-DHCR7 membrane), sequence (Q15125 whole entry): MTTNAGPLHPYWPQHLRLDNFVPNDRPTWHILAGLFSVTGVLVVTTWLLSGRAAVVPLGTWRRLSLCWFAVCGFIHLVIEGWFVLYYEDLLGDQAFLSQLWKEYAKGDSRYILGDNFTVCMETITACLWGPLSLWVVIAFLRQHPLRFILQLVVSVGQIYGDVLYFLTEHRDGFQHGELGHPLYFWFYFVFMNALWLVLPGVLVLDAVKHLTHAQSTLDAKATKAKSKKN

| Structure (SMILES) | Ki [1] [nM] | EC50 [2] [nM] |
| --- | --- | --- |
| CC(C)n1nc(N2CC(F)(F)C2)cc1[C@H]1CC[C@H](N2CCC3(C2)CS(=O)(=O)C3)CC1 [Compound 35, 6-((1r,4r)-4-(3-(3,3-Difluoroazetidin-1-yl)-1-isopropyl-1H-pyrazol-5-yl)cyclohexyl)-2-thia-6-azaspiro[3.4]octane 2,2-dioxide] | 280 | 45 |
| O=S1(=O)CC2(CCN([C@H]3CC[C@@H](c4cc(C(F)(F)F)nn4C4CC4)CC3)CC2)C1 [Compound 40A, 7-((1r,4r)-4-(1-cyclopropyl-3-(trifluoromethyl)-1H-pyrazol-5-yl)cyclohexyl)-2-thia-7-azaspiro[3.5]nonane 2,2-dioxide] | 59 | 4 |
| O=S1(=O)CC2(CCN([C@H]3CC[C@H](c4cc(C(F)(F)F)nn4C4CC4)CC3)CC2)C1 [Compound 40B, 7-((1s,4s)-4-(1-cyclopropyl-3-(trifluoromethyl)-1H-pyrazol-5-yl)cyclohexyl)-2-thia-7-azaspiro[3.5]nonane 2,2-dioxide] | 183 | 17 |

These reach a lower Ki [1]. Values come first.

| Ki [1] [nM] | EC50 [2] [nM] | Structure (SMILES) |
| --- | --- | --- |
| 34 | 7.6 | CC(C)n1nc(-c2cncc(OC(F)F)c2)cc1[C@H]1CC[C@H](N2CCC3(C2)CS(=O)(=O)C3)CC1 [Compound 33A, 6-((1r,4r)-4-(3-(5-(Difluoromethoxy)pyridin-3-yl)-1-isopropyl-1H-pyrazol-5-yl)cyclohexyl)-2-thia-6-azaspiro[3.4]octane 2,2-dioxide] |
| 28 | 9.8 | CC(C)n1nc(-c2cncc(OC(F)F)c2)cc1[C@H]1CC[C@@H](N2CCC3(C2)CS(=O)(=O)C3)CC1 [Compound 33B, (Cis)-6-(4-(3-(5-(Difluoromethoxy)pyridin-3-yl)-1-isopropyl-1H-pyrazol-5-yl)cyclohexyl)-2-thia-6-azaspiro[3.4]octane 2,2-dioxide] |
| 23 | 4.1 | Cc1cc(C(F)(F)F)cnc1[C@H]1CC[C@H](N2CCC3(C2)CS(=O)(=O)C3)CC1 [Compound 47B, 6-((1r,4r)-4-(3-methyl-5-(trifluoromethyl)pyridin-2-yl)cyclohexyl)-2-thia-6-azaspiro[3.4]octane 2,2-dioxide] |
